Test results: patent US11485728B2, “Small molecules for the treatment of autoimmune diseases and cancer” (Athos Therapeutics, Inc., priority 2020, dated 2022)

Tests used:
[1] = Dosing formulation stability (physical, potency, impurity profile); assay type: physicochemical; conditions: for Conc. (potency) / Observation (physical state): dosing formulation
Protocol: 5 mg/mL of test compound was formulated with 10% Dimethylacetamide (DMA), 30% Propylene Glycol, 35% PEG-300, 25% water (H2O). The formulation solution was stored at 4° C. and 25° C. The samples were retrieved at the following time points: 1 day, 3 days, 5 days, 7 days, 10 days and 14 days. The sample retrieved at each time point was examined visually observation of the physical state (texture and color) prior to sample preparation for analysis for physical stability. For chemical stability, the sample was diluted 1:250 dilution with acetonitrile (ACN) for potency analysis, and to 100 ug/mL final solution for impurity profile. The sample were prepared in triplication for potency analysis. The samples were then injected to HPLC for the determination of test compound concentration and its impurity profile. An Agilent 1260 Infinity II Lab LC Series HPLC system was used including 1260 Quat pump, 1260 vial autosampler, ICC column oven, and 1260 DAD WR detector. The chromatographic separation was achieved by a Phenomenex Synergi Polar RP column (150×4.6 mm, 4 μm, 80 Å). The flow rate was 1 mL/min and the detection was set at 254 nm. Injection volume was 10 uL, otherwise specified. The mobile phase consisted A, water with 0.1% trifluoroacetic acid and B, acetonitrile with 0.1% trifluoroacetic acid. […] For impurity profile, the gradient was A/B (99:1) from 0 minute; to A/B (1:99) from 0 to 15 minutes; A/B (1:99) from 15 to 18 minutes; to A/B (99:1) from 18 to 18.1 minutes; A/B (99:1) from 18.1 to 20 minutes. Data acquisition and peak integrations were obtained by OpenLAB CDS Version 2.4 (Agilent) operating with Windows (Microsoft).
Physical and chemical stability of dosing formulation lead to the investigation of potential impurities upon storage at various temperatures. The stability results can be used to assess the appropriate storage conditions and shelf life of a formulation, and can provide important information for drug formulation development, nonclinical, and clinical studies, especially on-going efficacy studies. The dosing formulation in these experiments contained 5 mg/mL test compound 1, with 10% Dimethylacetamide (DMA), 30% Propylene Glycol, 35% PEG-300, 25% water (H2O). The dosing formulation was stored at 4° C. and 25° C. The samples were retrieved at the following time points: 1 day and 3 days. The dosing formulation was diluted and analyzed for potency and impurity profile using reverse phase high pressure liquid chromatography. The impurity profile was described as the relative percent peak area of each peak detected.

colon cell line HCT = test: Gene expression (RNA-Seq) of colon cancer cells treated with Compound 156; assay type: cell-based, Human
Protocol: Methods: RNA was extracted from HTC colon cancer cells that has been treated or not with Compound 156 and was sent to the Technology Center for Genomics & Bioinformatics at UCLA for sequencing.
Library construction and sequencing methods: Libraries for RNA-Seq were prepared with TruSeq Stranded mRNA Library Prep Kit. The workflow consists of mRNA enrichment and fragmentation. Cleaved RNA fragments are copied into first strand cDNA using reverse transcriptase and random primers. Strand specificity is achieved by replacing dTTP with dUTP and followed by second strand cDNA synthesis using DNA Polymerase I and RNase H. cDNA generation is followed by A-tailing, adaptor ligation and PCR amplification. Different adaptors were used for multiplexing samples in one lane. Sequencing was performed on Illumina NovaSeq 6000 for PE 2×50 run. Data quality check was done on Illumina SAV. Demultiplexing was performed with Illumina Bcl2fastq v2.19.1.403 software.
Bioinformatics methods: The reads were mapped by STAR 2.27a to Human GRCh38 genome and read counts per gene were quantified using Ensembl Human GRCh38.98 GTF file. Gene differential expression analysis and downstream gene enrichment analysis was performed at Athos Therapeutics. The DESeq2 R package was used for differential expression analysis. DESeq2 FDR cutoff: 0.05, DESeq2 Log 2FC cutoff: 1 (FC cutoff: 2). Gene enrichment analysis was performed using the Enrichr (https://maayanlab.cloud/Enrichr/enrich) and gprofiler (https://biit.cs.ut.ee/gprofiler/gost) platforms.

[2] = cell cycle pathway, colon cell line HCT
[3] = p53 pathway, colon cell line HCT

COc1cc2c(NC3CCS(=O)(=O)CC3)nc(N3CCC(F)(F)CC3)nc2cc1OCCCN1CCCC1 [Compound 1, 4-((2-(4,4-difluoropiperidin-1-yl)-6-methoxy-7-(3-(pyrrolidin-1-yl)propoxy)quinazolin-4-yl)amino)tetrahydro-2H-thiopyran 1,1-dioxide]
Impurity Peak RRT 0.978, relative percent peak area ([1]; 4° C., day 0): 0.14%
Peak RRT 1.00 (Compound 1), relative percent peak area ([1]; 4° C., day 0): 99.86%
Impurity Peak RRT 0.978, relative percent peak area ([1]; 4° C., day 1): 0.14%
Peak RRT 1.00 (Compound 1), relative percent peak area ([1]; 4° C., day 1): 99.86%
Impurity Peak RRT 0.978, relative percent peak area ([1]; 4° C., day 3): 0.31%
Peak RRT 1.00 (Compound 1), relative percent peak area ([1]; 4° C., day 3): 99.69%
Impurity Peak RRT 0.978, relative percent peak area ([1]; 25° C., day 0): 0.14%
Peak RRT 1.00 (Compound 1), relative percent peak area ([1]; 25° C., day 0): 99.86%
Impurity Peak RRT 0.978, relative percent peak area ([1]; 25° C., day 1): 0.13%
Peak RRT 1.00 (Compound 1), relative percent peak area ([1]; 25° C., day 1): 99.87%
Impurity Peak RRT 0.978, relative percent peak area ([1]; 25° C., day 3): 0.30%
Peak RRT 1.00 (Compound 1), relative percent peak area ([1]; 25° C., day 3): 99.70%
Conc. (potency) ([1]; 4° C., day 0): 5560 µg/mL
Observation (physical state) ([1]; 4° C., day 0): Clear solution
Conc. (potency) ([1]; 4° C., day 1): 5570 µg/mL
Observation (physical state) ([1]; 4° C., day 1): Clear solution
Conc. (potency) ([1]; 4° C., day 3): 5650 µg/mL
Observation (physical state) ([1]; 4° C., day 3): Clear solution
Conc. (potency) ([1]; 25° C., day 0): 5560 µg/mL
Observation (physical state) ([1]; 25° C., day 0): Clear solution
Conc. (potency) ([1]; 25° C., day 1): 5470 µg/mL
Observation (physical state) ([1]; 25° C., day 1): Clear solution
Conc. (potency) ([1]; 25° C., day 3): 6090 µg/mL
Observation (physical state) ([1]; 25° C., day 3): Clear solution

COc1cc2c(NC3CCN(C(C)C)CC3)nc(-n3ccnc3)nc2cc1OCCCN1CCCC1 [Compound 156, 2-(1H-imidazol-1-yl)-N-(1-isopropylpiperidin-4-yl)-6-methoxy-7-(3-(pyrrolidin-1-yl)propoxy)quinazolin-4-amine]
Log2 Fold Change BUB1 (colon cell line HCT; [2]): −5.157
Log2 Fold Change BUB1B (colon cell line HCT; [2]): −4.7094
Log2 Fold Change CCNA2 (colon cell line HCT; [2]): −5.163
Log2 Fold Change CCNB1 (colon cell line HCT; [2]): −4.231
Log2 Fold Change CCNB2 (colon cell line HCT; [2]): −5.041
Log2 Fold Change CCNE2 (colon cell line HCT; [2]): −5.409
Log2 Fold Change CDC6 (colon cell line HCT; [2]): −4.121
Log2 Fold Change CDC7 (colon cell line HCT; [2]): −2.499
Log2 Fold Change CDC20 (colon cell line HCT; [2]): −4.826
Log2 Fold Change CDC25A (colon cell line HCT; [2]): −2.858
Log2 Fold Change CDC25C (colon cell line HCT; [2]): −5.142
Log2 Fold Change CDC45 (colon cell line HCT; [2]): −4.679
Log2 Fold Change CDK1 (colon cell line HCT; [2]): −4.779
Log2 Fold Change CDKN2C (colon cell line HCT; [2]): −5.14
Log2 Fold Change CHEK1 (colon cell line HCT; [2]): −1.994
Log2 Fold Change CHEK2 (colon cell line HCT; [2]): −2.186
Log2 Fold Change DBF4 (colon cell line HCT; [2]): −2.536
Log2 Fold Change E2F1 (colon cell line HCT; [2]): −4.309
Log2 Fold Change E2F2 (colon cell line HCT; [2]): −5.296
Log2 Fold Change ESPL1 (colon cell line HCT; [2]): −4.821
Log2 Fold Change MAD2L1 (colon cell line HCT; [2]): −4.388
Log2 Fold Change MCM2 (colon cell line HCT; [2]): −3.686
Log2 Fold Change MCM3 (colon cell line HCT; [2]): −2.599
Log2 Fold Change MCM4 (colon cell line HCT; [2]): −3.347
Log2 Fold Change MCM5 (colon cell line HCT; [2]): −4.183
Log2 Fold Change MCM6 (colon cell line HCT; [2]): −3.834
Log2 Fold Change MCM7 (colon cell line HCT; [2]): −3.817
Log2 Fold Change ORC1 (colon cell line HCT; [2]): −4.987
Log2 Fold Change ORC6 (colon cell line HCT; [2]): −3.9103
Log2 Fold Change PKMYT1 (colon cell line HCT; [2]): −3.971
Log2 Fold Change PLK1 (colon cell line HCT; [2]): −4.8821
Log2 Fold Change PTTG1 (colon cell line HCT; [2]): −2.317
Log2 Fold Change RBL1 (colon cell line HCT; [2]): −3.043
Log2 Fold Change SKP2 (colon cell line HCT; [2]): −2.823
Log2 Fold Change SMC1A (colon cell line HCT; [2]): −1.934
Log2 Fold Change TTK (colon cell line HCT; [2]): −4.824
Log2 Fold Change WEE1 (colon cell line HCT; [2]): −2.394
number of genes activated by p53 that were upregulated (colon cell line HCT; data not shown): > 80 genes
number of genes regulated by E2F-1 and E2F-4 that were downregulated (colon cell line HCT; data not shown): > 500 genes
Log2 Fold Change CCND1 (colon cell line HCT; [3]): 1.792
Log2 Fold Change CD82 (colon cell line HCT; [3]): 1.878
Log2 Fold Change CDKN1A (colon cell line HCT; [3]): 3.19
Log2 Fold Change FAS (colon cell line HCT; [3]): 2.667
Log2 Fold Change GADD45A (colon cell line HCT; [3]): 1.969
Log2 Fold Change MDM2 (colon cell line HCT; [3]): 3.166
Log2 Fold Change PMAIP1 (colon cell line HCT; [3]): 3.102
Log2 Fold Change RRM2B (colon cell line HCT; [3]): 2.678
Log2 Fold Change SERPINB5 (colon cell line HCT; [3]): 2.471
Log2 Fold Change SERPINE1 (colon cell line HCT; [3]): 3.232
Log2 Fold Change SESN1 (colon cell line HCT; [3]): 1.955
Log2 Fold Change SESN2 (colon cell line HCT; [3]): 2.19
Log2 Fold Change THBS1 (colon cell line HCT; [3]): 1.872
Log2 Fold Change TP53I3 (colon cell line HCT; [3]): 3.87
Log2 Fold Change ZMAT3 (colon cell line HCT; [3]): 3.367
genes related to cell cycle (colon cell line HCT; treated vs not treated): downregulated
p-53 related genes (colon cell line HCT; treated vs not treated): upregulated
